Assay results from publication PMC3254807 (2011).

Biological target: Na+/K+ ATPase
Assay: colorimetric ATPase assay
Type: biochemical, Sus scrofa

Work on `C[C@@H]1O[C@@H](O[C@H]2CC[C@@]3(C)[C@H](CC[C@@H]4[C@@H]3CC[C@]3(C)[C@@H](C5=CC(=O)OC5)CC[C@]43O)C2)[C@H](O)[C@H](O)[C@H]1O` [D6-MA] yielded an IC50 of 1.1 µM.
Molecule `C[C@H]1O[C@@H](O[C@H]2[C@@H](O)C[C@H](O[C@H]3[C@@H](O)C[C@H](O[C@H]4CC[C@@]5(C)[C@H](CC[C@@H]6[C@@H]5CC[C@]5(C)[C@@H](C7=CC(=O)OC7)CC[C@]65O)C4)O[C@@H]3C)O[C@@H]2C)C[C@H](O)[C@@H]1O` [Digitoxin] has an IC50 of 2.8 µM.
